Experiment [1] has as its target T1, Pantothenate synthetase (Mycobacterium tuberculosis) (UniProt P9WIL5).
T1 sequence (whole entry): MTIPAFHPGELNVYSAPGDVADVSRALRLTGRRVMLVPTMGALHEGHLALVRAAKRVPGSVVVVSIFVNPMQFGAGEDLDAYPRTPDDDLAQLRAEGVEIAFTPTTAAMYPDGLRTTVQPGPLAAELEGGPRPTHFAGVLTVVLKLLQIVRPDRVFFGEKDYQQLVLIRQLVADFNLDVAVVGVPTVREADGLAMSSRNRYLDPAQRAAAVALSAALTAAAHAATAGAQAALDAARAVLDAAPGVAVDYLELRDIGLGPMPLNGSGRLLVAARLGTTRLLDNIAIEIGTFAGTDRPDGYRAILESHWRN
Kind of experiment: Inhibition of Mycobacterium tuberculosis pantothenate synthetase at 50 uM by high throughput screening method relative to control.

For experiment [2], the target named is T2, Pantothenate synthetase (Mycobacterium tuberculosis, UniProt P9WIL5).
T2 sequence (P9WIL5 whole entry): T1 sequence (whole entry)
Nature of the experiment: Inhibition of Mycobacterium tuberculosis pantothenate synthetase by high throughput screening method.

The target in experiment [3] is T2, Pantothenate synthetase. Kind of experiment: Competitive inhibition of Mycobacterium tuberculosis pantothenate synthetase using ATP by Dixon plot analysis.
Experiment [4] addresses T2, Pantothenate synthetase. Nature of the experiment: Competitive inhibition of Mycobacterium tuberculosis pantothenate synthetase using beta-alanine by Dixon plot analysis.
Experiment [5] has as its system Mycobacterium tuberculosis. Nature of the experiment: Antimycobacterial activity against Mycobacterium tuberculosis H37Rv. The experiment is classed as functional.

This is an account of results in ChEMBL document CHEMBL1795340, “A discovery of novel Mycobacterium tuberculosis pantothenate synthetase inhibitors based on the molecular mechanism of actinomycin D inhibition” (Bioorg Med Chem Lett, 2011).

Converted amounts (≈) assume the structure as drawn. Where a name gives a salt, the structure may show the parent alone. Numbered stars: 1 amine (or outer) side, 2 acyl side, 3 side chain; on linkers, the order of the positions; unused ones are H or OH. Bridge positions count the residues as written; N and C are the ends. Square brackets hold non-standard residues; d marks the D form. Peptide text beside a SMILES is read from it. I, II: the chains in the order shown. Actinocin(9to1) = Cc1c2oc3c(C)ccc(C(=O)[*:1])c3nc-2c(C(=O)[*:2])c(N)c1=O; NMeV = CN[C@H](C(=O)O)C(C)C; Sar = CNCC(=O)O

For `C=C/C=C/C=C/c1cccc(NNC(=O)CCC(=O)O)c1`, the inhibition (in general, how much of the control response was suppressed) in experiment [1] came to 27.1%.

`Cc1c2oc3c(C)ccc(C(=O)N[C@@H]4C(=O)N[C@H](C(C)C)C(=O)N5CCC[C@H]5C(=O)N(C)CC(=O)N(C)[C@@H](C(C)C)C(=O)O[C@@H]4C)c3nc-2c(C(=O)N[C@@H]2C(=O)N[C@H](C(C)C)C(=O)N3CCC[C@H]3C(=O)N(C)CC(=O)N(C)[C@@H](C(C)C)C(=O)O[C@@H]2C)c(N)c1=O` [DACTINOMYCIN] (I: T[dV]P[Sar][NMeV] / II: T[dV]P[Sar][NMeV]; ester I:1-I:C, II:1-II:C; linker I:N-II:N via Actinocin(9to1)): the half-maximal inhibitory concentration (IC50) – broadly, the midpoint of a concentration-inhibition curve – at Pantothenate synthetase [2] was determined as 251 µM.

Regarding `CCN(CC)CCOC(=O)C(Cc1cccc2ccccc12)CC1CCCO1` (stereo not drawn) [NAFRONYL OXALATE], on Pantothenate synthetase [2], it took 398 µM to reach half-maximal inhibition (IC50).

In the case of `COC(=O)c1cc2c(OCc3ccccc3)cc(N)cc2[nH]1`, the concentration for half-maximal inhibition (IC50) at Pantothenate synthetase [2] worked out at 22.4 µM. The inhibition in experiment [1] was found to be 69.4%. The Ki (commonly the dissociation constant of the complex between target and ligand, obtained from inhibition or displacement) at Pantothenate synthetase [3] worked out at 1.4 µM; on Pantothenate synthetase [4], 19.7 µM. Moreover, it took 54 µM (≈ 16 µg/mL) to inhibit growth in experiment [5] (MIC).
